Active and inactive are the calls of the source. The calls are words filed in the database; no cut-off is given here.
How the values were obtained:
[1] = target: T1, Glucocorticoid receptor (Homo sapiens, UniProt P04150); experiment: Displacement of [3H]DEX from human glucocorticoid receptor
T1 sequence (P04150 whole entry): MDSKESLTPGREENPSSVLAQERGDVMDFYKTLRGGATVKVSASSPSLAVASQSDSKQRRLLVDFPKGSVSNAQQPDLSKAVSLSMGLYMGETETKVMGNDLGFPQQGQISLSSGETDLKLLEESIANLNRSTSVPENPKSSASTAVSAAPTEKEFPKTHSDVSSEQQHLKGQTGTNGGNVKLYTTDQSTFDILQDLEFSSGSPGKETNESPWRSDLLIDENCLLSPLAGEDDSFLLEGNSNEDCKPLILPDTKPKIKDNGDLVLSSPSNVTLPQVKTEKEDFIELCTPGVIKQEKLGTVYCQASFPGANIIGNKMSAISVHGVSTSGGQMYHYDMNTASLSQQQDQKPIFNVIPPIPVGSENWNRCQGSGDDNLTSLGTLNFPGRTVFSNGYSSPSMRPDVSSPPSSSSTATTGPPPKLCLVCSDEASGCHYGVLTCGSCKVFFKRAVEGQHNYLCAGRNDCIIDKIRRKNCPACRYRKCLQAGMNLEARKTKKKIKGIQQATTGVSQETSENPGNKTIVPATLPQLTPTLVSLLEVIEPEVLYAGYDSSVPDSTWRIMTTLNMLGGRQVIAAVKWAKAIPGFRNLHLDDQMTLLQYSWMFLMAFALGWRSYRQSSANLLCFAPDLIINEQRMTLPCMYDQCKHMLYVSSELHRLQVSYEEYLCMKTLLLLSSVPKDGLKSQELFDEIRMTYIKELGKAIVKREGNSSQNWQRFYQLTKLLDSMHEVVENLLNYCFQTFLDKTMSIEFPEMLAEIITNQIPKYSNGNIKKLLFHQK

[2] = target: T2, Glucocorticoid receptor (Homo sapiens) (UniProt P04150); experiment: Displacement of fluoromone from human glucocorticoid receptor LBD at 10 uM assessed as reduction of maximum polarization by fluorescence polarization assay relative to control; set-up: scale not given: the % may be the effect or the level left
T2 sequence (whole entry): T1 sequence (P04150 whole entry)

[3] = target: T3, Estrogen receptor (Homo sapiens) (UniProt P03372); experiment: Displacement of fluoromone from human recombinant ERalpha assessed as reduction of maximum polarization by fluorescence polarization assay
T3 sequence (whole entry): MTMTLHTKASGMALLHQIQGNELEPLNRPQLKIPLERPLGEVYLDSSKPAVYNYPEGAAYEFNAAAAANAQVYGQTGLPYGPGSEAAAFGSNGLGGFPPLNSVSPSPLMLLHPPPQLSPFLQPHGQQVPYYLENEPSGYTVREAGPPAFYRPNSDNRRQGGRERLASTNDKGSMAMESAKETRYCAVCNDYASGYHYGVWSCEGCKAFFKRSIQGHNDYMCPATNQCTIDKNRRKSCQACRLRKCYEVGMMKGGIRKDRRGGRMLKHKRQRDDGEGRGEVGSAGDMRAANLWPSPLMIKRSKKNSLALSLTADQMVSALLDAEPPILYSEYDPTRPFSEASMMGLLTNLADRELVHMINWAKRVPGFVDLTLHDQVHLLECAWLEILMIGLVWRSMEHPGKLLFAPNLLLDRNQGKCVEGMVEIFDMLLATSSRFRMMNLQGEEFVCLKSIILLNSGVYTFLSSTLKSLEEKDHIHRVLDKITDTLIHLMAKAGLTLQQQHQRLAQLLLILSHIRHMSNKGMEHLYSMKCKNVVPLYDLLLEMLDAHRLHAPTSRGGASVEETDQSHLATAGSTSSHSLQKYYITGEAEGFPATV

[4] = target: Estrogen receptor beta (Homo sapiens) (UniProt Q92731); experiment: Displacement of fluoromone from human recombinant ERbeta assessed as reduction of maximum polarization by fluorescence polarization assay
Estrogen receptor beta (Homo sapiens), sequence (Q92731 whole entry): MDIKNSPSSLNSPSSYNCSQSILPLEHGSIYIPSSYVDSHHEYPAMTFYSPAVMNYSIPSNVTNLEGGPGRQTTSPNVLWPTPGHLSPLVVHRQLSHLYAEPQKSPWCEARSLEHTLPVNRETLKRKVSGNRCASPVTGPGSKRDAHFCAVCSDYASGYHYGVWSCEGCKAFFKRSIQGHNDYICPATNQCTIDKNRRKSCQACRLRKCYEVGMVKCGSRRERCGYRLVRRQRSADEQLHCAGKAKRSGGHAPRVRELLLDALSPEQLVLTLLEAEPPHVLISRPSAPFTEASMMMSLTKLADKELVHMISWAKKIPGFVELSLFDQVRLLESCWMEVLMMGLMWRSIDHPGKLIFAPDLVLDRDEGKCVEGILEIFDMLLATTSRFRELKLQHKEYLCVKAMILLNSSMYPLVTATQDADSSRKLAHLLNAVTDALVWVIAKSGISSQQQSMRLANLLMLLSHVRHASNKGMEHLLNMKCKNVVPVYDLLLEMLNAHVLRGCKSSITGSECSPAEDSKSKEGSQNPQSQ

[5] = target: T4, Peroxisome proliferator-activated receptor gamma (Homo sapiens) (UniProt P37231); experiment: Displacement of fluoromone from human recombinant PPARgamma assessed as reduction of maximum polarization by fluorescence polarization assay
T4 sequence (whole entry): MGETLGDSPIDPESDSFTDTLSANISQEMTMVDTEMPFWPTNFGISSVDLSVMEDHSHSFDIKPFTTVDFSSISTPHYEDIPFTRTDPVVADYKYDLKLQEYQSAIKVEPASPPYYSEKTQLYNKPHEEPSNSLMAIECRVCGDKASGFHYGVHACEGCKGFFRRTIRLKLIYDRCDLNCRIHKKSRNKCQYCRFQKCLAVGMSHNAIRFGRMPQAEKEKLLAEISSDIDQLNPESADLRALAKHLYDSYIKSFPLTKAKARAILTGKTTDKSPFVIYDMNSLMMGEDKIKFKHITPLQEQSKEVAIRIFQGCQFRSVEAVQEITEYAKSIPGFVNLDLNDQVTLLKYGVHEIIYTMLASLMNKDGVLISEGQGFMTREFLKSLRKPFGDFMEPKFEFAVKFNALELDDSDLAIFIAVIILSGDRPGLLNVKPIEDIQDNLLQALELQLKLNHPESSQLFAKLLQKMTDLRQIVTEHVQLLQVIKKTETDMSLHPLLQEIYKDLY

[6] = target: T2, Glucocorticoid receptor (Homo sapiens); experiment: Transrepression activity at glucocorticoid receptor in human A549 cells assessed as inhibition of IL-1-alpha-induced IL6 expression at 10 uM after 24 hrs by ELISA; format: cell-based

Ki [1] [µM]	Compound	further results
0.0042	C#COc1ccc2c(c1OC)-c1ccc3c(c1[C@H](CC=C)O2)C(C)=CC(C)(C)N3	
0.051	C=CC[C@@H]1Oc2ccc(OC#N)c(OC)c2-c2ccc3c(c21)C(C)=CC(C)(C)N3	
0.018	COc1ccc2c(c1)-c1ccc3c(c1[C@H](c1ccccc1)O2)C(C)=CC(C)(C)N3	

The next lines start with the compound.

Compound	Ki [1] [µM]	further results
CC#C[C@@]1(O)CC[C@@]2(Cc3ccccc3)c3ccc(C(=O)NCc4ccncc4)cc3CC[C@@H]2C1	0.002	
C=C1CCC(Br)C(C)(C)[C@@H]1Cc1cc(OC)c(Br)cc1O (some centres undefined)	3.21	
C#Cc1cccc2c1-c1ccc3c(c1[C@H](CC=C)O2)C(C)=CC(C)(C)N3	0.0069	
COc1c(Br)cc2ccccc2c1-c1c(OC)c(CO)cc2ccccc12		Activity [2]: 50%
C=C1CCC(Br)C(C)(C)[C@H]1Cc1cc(OC)c(Br)cc1O (some centres undefined)	2.47	
C=C1C(C)CCC(C)(C)[C@@H]1Cc1cc(OC)c(Br)cc1OC(C)=O (some centres undefined)	4.11	
O=C1CC(c2ccccc2)CC2=C1C(c1cc(Cl)ccc1Cl)Nc1ccccc1N2 (centres undefined)		Activity [2]: 65%; Activity [3]: inactive; Activity [4]: inactive; Activity [5]: inactive; inhibition [6]: inactive

Source: ChEMBL document CHEMBL1156190, “Virtual screening for the identification of novel nonsteroidal glucocorticoid modulators” (J Med Chem, 2010)
